Measured values from patent US6930103B2, “Use of vasopeptidase inhibitors in the treatment of metabolic diseases, nephropathy and advanced glycation end-product associated diseases” (Aventis Pharma Deutschland GmbH, priority 2002, dated 2005).

Key:
ZDF rats [1] = test: Dot blot analysis of kidney AGE subtypes (CML, CEL, pentosidine) in ZDF rats; assay type: in vivo, rat
Protocol: (§1) Kidney AGE values were determined by Dot blot analysis (Stracke et al., Exp. Clin. Endocrinol. Diabets 2002, 109, 330-336) and Reversed-phase high performance liquid chromatography or RP-HPLC (Drusch et al., Food Chem. 1999, 65, 547-553).
Kidney-samples for the dot blot analysis were obtained from 17-week-old male ZDF rats, control rats and ZDF rats treated for seven weeks with 30 mg/kg/d of compound (II-B) and 35 mg/kg/d of compound (III-B). Three animals of each group were sacrificed, the kidneys removed and immediately frozen in liquid nitrogen. Grinding of the kidneys was performed in liquid nitrogen using a freezer mill (Freezer 6750, C3 Analysetechnik GmbH). Kidney sample (10 mg) was dissolved in 1 ml phosphate buffered saline (PBS containing 0.5 g/l Tween 20, 0.5 mM PMSF, […]). The solution was treated two times for five seconds with an ultrasonic cell disrupter (45% power, Bandolin Sonoplus HD 2070), centrifuged for 20 minutes at 4000 rpm and the supernatant was used for dot blot analysis. The nitrocellulose membrane was placed in the dot blot apparatus and washed twice with Tris Buffered Saline (TBS), 100 μl TBS/well. For each sample, 10 μg protein (protein concentration of the samples were determined with the DC Protein Assay, Bio Rad) was diluted in 100 μl TBS and loaded on to the nitrocellulose membrane (Amersham). The membrane was incubated over night in TBS with Tween 20 (TBST; 20 mM Tris, 137 mM NaCl, 0.05% v/v Tween 20) with 5% non-fat dry milk at 4° C. and incubated for 1 hour at room temperature using the following antibody concentration: anti-CML 011 (Biologo) 0.25 μg/ml, anti-CEL (Biologo) 0.25 μg/ml and anti-pentosidine 012 (Biologo) 0.25 μg/ml. After extensive washing in TBST with 5% non-fat dry milk, membranes were exposed to […] anti-mouse IgG antibodies (Dianova) for one hour at room temperature. Membranes were washed again and exposed to the enhanced chemofluorescence detection system (Amersham) according to manufacturer's instructions. Relative fluorescence was determined with the Fluor-Imager 595 (Molecular Dynamics) and quantified using the Image-Quant software. Results were expressed in relative fluorescence (rf) times 10^5 (rf*10^5).

fat ZDF rats = test: Histological examination of kidneys of ZDF rats after 6 months treatment; assay type: in vivo, rat; design: Armanni-Ebstein cells MEAN SEVERITY / Glomerulosclerosis MEAN SEVERITY / Atrophy: renal tubule MEAN SEVERITY / Casts: renal tubule MEAN SEVERITY: scale not given here; settings: for Incidence of glomerulosclerosis or associated degenerative lesions compared to fat ZDF controls: in words
Protocol: (§2) The protein and creatinine excretion in the urine of male Zucker Diabetic Fatty (ZDF) Rats (ZDF Gmi fa/fa) and heterozygous control animals (ZDF Gmi −/+) of 10, 17, 27 and 37 weeks age was determined. In further groups, diabetic rats were chronically given either ramipril (1 mg/kg/day, in drinking water) or a compound of formula (II-B) (30 mg/kg/day, in food) over a period from 10 to 37 weeks. The animals were sacrificied after 37 weeks, and their kidneys examined histologically.
In the attached tables a summary of the findings on the kidneys after a treatment period of 6 months is listed.

ZDF rats [2] = test: RP-HPLC analysis of CML in kidney and heart of ZDF rats; assay type: in vivo, rat; settings: for mean CML conc.: RP-HPLC, ZDF Placebo = 100
Protocol: as §1
[…] Two animals of each group were analyzed. Grinding of the kidney and heart was performed in liquid nitrogen using a freezer mill (Freezer 6750, C3 Analysetechnik GmbH). Hydrolysis of the organ samples was performed with 6 M hydrochloric acid (HCl) at 110° C. for 12 hours. Sample treatment with o-phthaldialdehyde (OPA) and RP-HPLC was performed as described in Drusch et al., Food Chem. 1999, 65, 547-553.

[3] = system: Zucker diabetic fatty rats; test: HbA1c analysis in ZDF rats; assay type: in vivo, rat; settings: for HbA1c values compared to the untreated ZDF rats: 17-week-old ZDF rats; for HbA1c, mean: ZDF rats
Protocol: (§3) Blood glucose and HbA1c was measured in 10- and 17-week-old male Zucker diabetic fatty rats (Genetic Model Inc.), control rats (Genetic Model Inc.) and male ZDF rats treated for seven weeks with 30 mg/kg/d of compound (II-B), 35 mg/kg/d of compound (III-B) and 1 mg/kg/d ramipril. Fifteen animals were analyzed in each group.
To obtain blood samples for HbA1c determination, disposable capillary tubes were used. HbA1c values were obtained from hemolyzed whole blood samples with a turbidimetric inhibition immunoassay (Tina-quant, Roche Diagnostics GmbH) and hemoglobin concentrations were determined in a second channel on an automated clinical chemistry analyzer (Boehringer Mannheim/Hitachi 912). HbA1c concentration in percent were calculated from HbA1c to total hemoglobin.

[4] = system: Zucker diabetic fatty rats; test: Blood glucose analysis in ZDF rats; assay type: in vivo, rat; settings: for Blood glucose concentration compared to the untreated ZDF rats: 17-week-old ZDF rats; for blood glucose, mean: ZDF rats
Protocol: as §3
Blood samples for glucose determination were obtained from ZDF rats using standard sampling tubes. Within 30 minutes of collection, samples were separated from the cells by centrifugation. Quantitative determination of blood glucose in serum was performed with an enzymatic in vitro test from Roche Diagnostics GmbH (Gluco-quant, Roche Diagnostics GmbH) using the automated clinical chemistry analyzer Boehringer Mannheim/Hitachi 912.

[5] = acute treatment; Chen et al., Hypertension 2001; cited from earlier work
endothelial cells = test: NO and superoxide release from endothelial cells in rabbits fed an atherogenic diet; assay type: in vivo, White New Zealand rabbits; settings: varied diet rabbits; mean ± SEM
From the text: (§4) It was shown in the atherogenic rabbit model (White New Zealand rabbits were fed with 0.25% cholesterol plus 3% coconut oil) that even a short 6 week period of an atherogenic diet leads to sustained endothelial dysfunction, even though the animals received a normal diet for 3 months thereafter.
The endothelium-dependent relaxation of isolated aortic rings of rabbits as well as the release of nitric oxide and superoxide from endothelial cells serve as measures of endothelial dysfunction.
• Groups: • Standard: 18 weeks normal diet • Atherogenic: 18 weeks atherogenic diet (3% Coconut oil+0.25% Cholesterol) • Varied diet (Var.): 6 weeks atherogenic diet+12 weeks normal diet • Varied Diet+ramipril: 6 weeks atherogenic diet+12 weeks normal diet+ramipril • Varied diet+compound (II-B): 6 weeks atherogenic diet+12 weeks normal diet+cpd. (II-B)
NO and O2^− are markers for endothelial function: increased relaxation and increased NO levels are beneficial, while increased O2^− formation inhibits the beneficial effects of NO.

Goto-Kakizaki (GK) rats = test: Albumin and creatinine excretion in Goto-Kakizaki (GK) rats; assay type: in vivo, rat; settings: start at age 6 months, mean
Protocol: The albumin and creatinine excretion in Goto-Kakizaki (GK) rats was determined. GK rats are a model for Type II diabetes. One group was left untreated, one was treated with the ACE/NEP inhibitor of formula (II-B) and one group was treated with the ACE inhibitor ramipril. [table]

[6] = system: Zucker Diabetic Fatty (ZDF) Rats (ZDF Gmi fa/fa); test: Urinary excretion of albumin and creatinine in ZDF rats treated from 10 to 37 weeks of age; assay type: in vivo, rat; settings: ZDF rats, mean
Protocol: as §2

ZDF rats [7] = test: Urinary albumin/creatinine in ZDF rats, treatment starting at an animal age of 6 months; assay type: in vivo, rat; settings: start at age 6 months, mean
[8] = system: isolated aortic rings of rabbits; test: Relaxation of aortic rings by acetylcholine in rabbits fed an atherogenic diet; assay type: in vivo, White New Zealand rabbits; settings: varied diet rabbits, mean ± SEM
From the text: as §4, with “thereafter. […] The endothelium-dependent relaxation of isolated aortic rings of rabbits as well as the release of nitric oxide and superoxide from endothelial cells serve as measures of endothelial dysfunction. […] (II-B) [table]” for “thereafter.”

Wistar rats = test: Albumin and creatinine excretion in Wistar rats (non-diabetic nephropathy); assay type: in vivo, rat; settings: Wistar rats, start at age 6 months, mean
Protocol: The albumin and creatinine excretion in Wistar rats was determined. One group was left untreated, one was treated with the ACE/NEP inhibitor of formula (II-B) and one group was treated with the ACE inhibitor ramipril. Wistar rats are non-diabetic and develop proteinuria and structural kidney damage during adult life. Wistar rats are therefore a model for non-diabetic nephropathy. [table]

[9] = 17-week-old ZDF rats treated for seven weeks, dot blot
[10] = age 10 weeks (start of treatment)
[11] = age 17 weeks (treated for seven weeks)
[12] = kidneys, male fat ZDF rats, terminal sacrifice
[13] = kidneys, male fat ZDF rats, terminal sacrifice, examined: D1 9, D4 8

CC(=O)S[C@@H](Cc1ccccc1)C(=O)N[C@H]1Cc2ccccc2[C@H]2CCC[C@@H](C(=O)O)N2C1=O [cpd. (III-B)]
AGE-subtype CEL in the kidneys (anti-CEL), mean (ZDF rats [1]; [9]): 52.60 rf * 10^5
AGE-subtype CML in the kidneys (anti-CML 011), mean (ZDF rats [1]; [9]): 38.67 rf * 10^5
AGE-subtype pentosidine in the kidneys (anti-pentosidine 012), mean (ZDF rats [1]; [9]): 40.70 rf * 10^5
Kidney AGE (Nε-(carboxymethyl)lysine or CML) values (ZDF rats [1]; diabetic rats, summary in words): lowers the CML value significantly
AGE values for subtype CEL compared to untreated ZDF rats (ZDF rats [1]; kidney, dot blot, in words): Lower AGE values
AGE values for subtype pentosidine compared to untreated ZDF rats (ZDF rats [1]; kidney, dot blot, in words): Lower AGE values
Incidence of glomerulosclerosis or associated degenerative lesions compared to fat ZDF controls (fat ZDF rats): no differences
mean CML conc. (ZDF rats [2]; hearts of 17-week-old ZDF rats): 66%
mean CML conc. (ZDF rats [2]; kidneys of 17-week-old ZDF rats): 60%
mean CML conc. (ZDF rats [2]; kidneys of 37-week-old ZDF rats): 93%
CML concentration in the heart of 17-week-old ZDF rats (ZDF rats [2]; in words): also reduces
CML concentration in the kidneys of 17-week-old ZDF rats (ZDF rats [2]; in words): also reduces
HbA1c values compared to the untreated ZDF rats ([3]; in words): significantly lower
HbA1c, mean [3, 10]: 5.60%
HbA1c, mean [3, 11]: 7.19%
HbA1c value compared with the ACE inhibitor ramipril ([3]; in words): lower values
Blood glucose concentration compared to the untreated ZDF rats ([4]; in words): significantly lower
blood glucose, mean [4, 10]: 10.37 mM
blood glucose, mean [4, 11]: 19.74 mM
Blood glucose value compared with the ACE inhibitor ramipril ([4]; in words): lower values

O=C(N[C@H]1CCS[C@H]2CCC[C@@H](C(=O)O)N2C1=O)[C@@H](S)Cc1ccccc1 [omapatrilat]
Natriuretic response compared with ACE inhibitor fosinoprilat [5]: greater natriuretic response

CCOC(=O)[C@H](CCc1ccccc1)N[C@@H](C)C(=O)N1[C@H](C(=O)O)C[C@@H]2CCC[C@@H]21 [ramipril, reference compound]
NO (endothelial cells): 368.31 ± 42.25 nM
O2^− (superoxide) (endothelial cells): 48.09 ± 7.91 nM
Incidence of glomerulosclerosis or associated degenerative lesions compared to fat ZDF controls (fat ZDF rats): no differences
Armanni-Ebstein cells GRADE 1: number of animals (fat ZDF rats; [12]): 1
Armanni-Ebstein cells GRADE 2: number of animals (fat ZDF rats; [12]): 6
Armanni-Ebstein cells MEAN SEVERITY (fat ZDF rats; [12]): 1.9
Atrophy: renal tubule GRADE 1: number of animals (fat ZDF rats; [12]): 4
Atrophy: renal tubule GRADE 2: number of animals (fat ZDF rats; [12]): 4
Atrophy: renal tubule GRADE 3: number of animals (fat ZDF rats; [12]): 1
Atrophy: renal tubule MEAN SEVERITY (fat ZDF rats; [12]): 1.7
Casts: renal tubule GRADE 1: number of animals (fat ZDF rats; [12]): 1
Casts: renal tubule GRADE 2: number of animals (fat ZDF rats; [12]): 7
Casts: renal tubule MEAN SEVERITY (fat ZDF rats; [12]): 1.9
Dilatation: pelvis GRADE 2: number of animals (fat ZDF rats; [12]): 1
Dilatation: pelvis GRADE 3: number of animals (fat ZDF rats; [12]): 2
Dilatation: pelvis GRADE 4: number of animals (fat ZDF rats; [12]): 2
Dilatation: pelvis MEAN SEVERITY (fat ZDF rats; [12]): 3.2
Glomerulosclerosis GRADE 2: number of animals (fat ZDF rats; [12]): 4
Glomerulosclerosis GRADE 3: number of animals (fat ZDF rats; [12]): 2
Glomerulosclerosis MEAN SEVERITY (fat ZDF rats; [12]): 2.3
Armanni-Ebstein cells: number of animals with finding (total affected) (fat ZDF rats; [13]): 7
Atrophy: renal tubule: number of animals with finding (total affected) (fat ZDF rats; [13]): 9
Casts: renal tubule: number of animals with finding (total affected) (fat ZDF rats; [13]): 8
Dilatation: pelvis: number of animals with finding (total affected) (fat ZDF rats; [13]): 5
Glomerulosclerosis: number of animals with finding (total affected) (fat ZDF rats; [13]): 6
Albumin/Creatinine (Goto-Kakizaki (GK) rats; 6 weeks treatment): 161.71 mg/mmol
Albumin/Creatinine (Goto-Kakizaki (GK) rats; 12 weeks treatment): 244.89 mg/mmol
Albumin/Creatinine (Goto-Kakizaki (GK) rats; Basal): 103.95 mg/mmol
Urine excretion Albumin ([6]; week 0 of treatment): 0.24 mg/kg/h
Urine excretion Albumin/Creatinine ([6]; week 0 of treatment): 37.31 mg/mmol
Urine excretion Albumin ([6]; week 7 of treatment): 1.36 mg/kg/h
Urine excretion Albumin/Creatinine ([6]; week 7 of treatment): 207.35 mg/mmol
Urine excretion Albumin ([6]; week 17 of treatment): 6.26 mg/kg/h
Urine excretion Albumin/Creatinine ([6]; week 17 of treatment): 694.20 mg/mmol
Urine excretion Albumin ([6]; week 27 of treatment): 10.11 mg/kg/h
Urine excretion Albumin/Creatinine ([6]; week 27 of treatment): 1077.88 mg/mmol
Albumin/Creatinine (ZDF rats [7]; 6 weeks treatment): 1249.59 mg/mmol
Albumin/Creatinine (ZDF rats [7]; 12 weeks treatment): 841.69 mg/mmol
Albumin/Creatinine (ZDF rats [7]; Basal): 1330.99 mg/mmol
Relaxation of aortic rings by acetylcholine ([8]; ACh 10^−5 mol/L after phenylephrine 10^−7 mol/L): 83.73 ± 4.03%
Relaxation of aortic rings by acetylcholine ([8]; ACh 10^−6 mol/L after phenylephrine 10^−7 mol/L): 77.34 ± 3.7%
Relaxation of aortic rings by acetylcholine ([8]; ACh 10^−7 mol/L after phenylephrine 10^−7 mol/L): 51.86 ± 4.43%
Relaxation of aortic rings by acetylcholine ([8]; ACh 10^−8 mol/L after phenylephrine 10^−7 mol/L): 13.08 ± 2.22%
HbA1c values compared to the untreated ZDF rats ([3]; in words): No significant difference
HbA1c, mean [3, 10]: 5.66%
HbA1c, mean [3, 11]: 9.48%
Albumin/Creatinine (Wistar rats; 6 weeks treatment): 184.27 mg/mmol
Albumin/Creatinine (Wistar rats; 12 weeks treatment): 188.40 mg/mmol
Albumin/Creatinine (Wistar rats; Basal): 130.45 mg/mmol
Blood glucose concentration compared to the untreated ZDF rats ([4]; in words): No significant difference
blood glucose, mean [4, 10]: 11.74 mM
blood glucose, mean [4, 11]: 27.33 mM
